Five molecules from PubChem BioAssay AID2060611 (Molecular Pharmacology Branch, DTP, NCI, 2025) can be followed below.

Each structure is given as a SMILES string. Values joined by “and” are separate entries in the source; they are usually repeats but may differ in a detail not shown here. Equal entries are not always repeated. Where only a bound is given, the exact number is not on record here.

What is called viability, T/C is the ratio of treated to control. Broadly, the IC50 is the concentration needed to halve the response being measured.
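Note: spheroids exposed to agents for seven days before readout.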
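Throughout, for viability, T/C: 100% = DMSO vehicle control viability.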

The subject of one assay is 628569-122-R-J1-PDC complex spheroid viability. As to the kind of experiment: Anticancer human tumor 628569-122-R-J1-PDC patient-derived head and neck squamous carcinoma cell line growth inhibition [CLK]. Particulars: compound 0.0316 µM; stronger effect = lower value. The method in brief:
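Multi-cell-type spheroids combined patient-derived tumor cells with HUVEC endothelial cells and human mesenchymal stem cells. Paired agents were dosed in half-log steps down from about clinical Cmax, or from 10 microM where Cmax was unknown.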
As for `CC(CO)NC(=O)c1cc(-c2ccc(Cl)cc2)nn(-c2cnn(C)c2)c1=O` (stereo not drawn), the viability, T/C was 112% and 116%.

Staying with this assay, now noted: compound 0.1 µM; stronger effect = lower value.
In the case of `CC(CO)NC(=O)c1cc(-c2ccc(Cl)cc2)nn(-c2cnn(C)c2)c1=O` (stereo not drawn), the viability, T/C was 123% and 158%.

The same assay, now with this note: compound 0.316 µM; stronger effect = lower value.
As to `CC(CO)NC(=O)c1cc(-c2ccc(Cl)cc2)nn(-c2cnn(C)c2)c1=O` (stereo not drawn), the viability, T/C is 177% and 202%.

The assay is the same for the next values; noted with them: compound 1 µM; stronger effect = lower value.
`CC(CO)NC(=O)c1cc(-c2ccc(Cl)cc2)nn(-c2cnn(C)c2)c1=O` (stereo not drawn): the viability, T/C is 169% and 217%.

Staying with this assay, now noted: compound 3.16 µM; stronger effect = lower value.
Regarding `CC(CO)NC(=O)c1cc(-c2ccc(Cl)cc2)nn(-c2cnn(C)c2)c1=O` (stereo not drawn), the viability, T/C was 175% and 243%.

Still in this assay, the particulars now being: compound 10 µM; stronger effect = lower value.
With `CC(CO)NC(=O)c1cc(-c2ccc(Cl)cc2)nn(-c2cnn(C)c2)c1=O` (stereo not drawn), the viability, T/C was 149% and 181%.

The assay is the same for the next values; noted with them: curve of compound.
Consider `CC(CO)NC(=O)c1cc(-c2ccc(Cl)cc2)nn(-c2cnn(C)c2)c1=O` (stereo not drawn), for which the IC50 is more than 10000 nM.

The same assay, now with this note: curve of first compound; second compound 0.0316 µM.
With `O=c1[nH]cc(F)c(=O)[nH]1` + CN1CCN(c2cc(C(=O)Nc3cc4cc(-c5cnn(C)c5)ccc4cn3)ccn2)CC1, the half-inhibitory concentration (IC50) is more than 10000 nM.
Still for that read-out and setting: as for `Nc1ccccc1NC(=O)c1ccc(CNC(=O)OCc2cccnc2)cc1` + CN1CCN(c2cc(C(=O)Nc3cc4cc(-c5cnn(C)c5)ccc4cn3)ccn2)CC1, the figure is 7610 nM; as for `Nc1ccn(C2OC(CO)C(O)C2(F)F)c(=O)n1` (stereo not drawn) + CNC(=O)c1ccc(Nc2nc(OC3CCCC3)c3c(-c4ccc5nc(C)oc5c4)c[nH]c3n2)c(OC)c1, 200 nM; as for `O=C(c1cc(Cc2n[nH]c(=O)c3ccccc23)ccc1F)N1CCN(C(=O)C2CC2)CC1` + CN1CCN(c2cc(C(=O)Nc3cc4cc(-c5cnn(C)c5)ccc4cn3)ccn2)CC1, 6760 nM.

The same assay, now with this note: curve of first compound; second compound 0.1 µM.
On to `O=c1[nH]cc(F)c(=O)[nH]1` + CN1CCN(c2cc(C(=O)Nc3cc4cc(-c5cnn(C)c5)ccc4cn3)ccn2)CC1, for which the IC50 is more than 10000 nM.
`Nc1ccccc1NC(=O)c1ccc(CNC(=O)OCc2cccnc2)cc1` + CN1CCN(c2cc(C(=O)Nc3cc4cc(-c5cnn(C)c5)ccc4cn3)ccn2)CC1: the IC50 turned out to be 4780 nM.
As for `Nc1ccn(C2OC(CO)C(O)C2(F)F)c(=O)n1` (stereo not drawn) + CNC(=O)c1ccc(Nc2nc(OC3CCCC3)c3c(-c4ccc5nc(C)oc5c4)c[nH]c3n2)c(OC)c1, the IC50 was more than 10000 nM.
On the same count and under the same terms, the value for `O=C(c1cc(Cc2n[nH]c(=O)c3ccccc23)ccc1F)N1CCN(C(=O)C2CC2)CC1` + CN1CCN(c2cc(C(=O)Nc3cc4cc(-c5cnn(C)c5)ccc4cn3)ccn2)CC1 was 1210 nM.

The assay is the same for the next values; noted with them: curve of first compound; second compound 0.316 µM.
With `O=c1[nH]cc(F)c(=O)[nH]1` + CN1CCN(c2cc(C(=O)Nc3cc4cc(-c5cnn(C)c5)ccc4cn3)ccn2)CC1, the IC50 was less than 31.6 nM.
Same read-out and setting: as for `Nc1ccccc1NC(=O)c1ccc(CNC(=O)OCc2cccnc2)cc1` + CN1CCN(c2cc(C(=O)Nc3cc4cc(-c5cnn(C)c5)ccc4cn3)ccn2)CC1, the figure is less than 31.6 nM; as for `Nc1ccn(C2OC(CO)C(O)C2(F)F)c(=O)n1` (stereo not drawn) + CNC(=O)c1ccc(Nc2nc(OC3CCCC3)c3c(-c4ccc5nc(C)oc5c4)c[nH]c3n2)c(OC)c1, less than 31.6 nM.
Consider `O=C(c1cc(Cc2n[nH]c(=O)c3ccccc23)ccc1F)N1CCN(C(=O)C2CC2)CC1` + CN1CCN(c2cc(C(=O)Nc3cc4cc(-c5cnn(C)c5)ccc4cn3)ccn2)CC1, for which the IC50 is less than 31.6 nM.

Still in this assay, the particulars now being: curve of first compound; second compound 1 µM.
With `O=c1[nH]cc(F)c(=O)[nH]1` + CN1CCN(c2cc(C(=O)Nc3cc4cc(-c5cnn(C)c5)ccc4cn3)ccn2)CC1, the IC50 is less than 31.6 nM.
The same measure, in the same setting: as for `Nc1ccccc1NC(=O)c1ccc(CNC(=O)OCc2cccnc2)cc1` + CN1CCN(c2cc(C(=O)Nc3cc4cc(-c5cnn(C)c5)ccc4cn3)ccn2)CC1, the figure is less than 31.6 nM.
On the same count and under the same terms, the value for `Nc1ccn(C2OC(CO)C(O)C2(F)F)c(=O)n1` (stereo not drawn) + CNC(=O)c1ccc(Nc2nc(OC3CCCC3)c3c(-c4ccc5nc(C)oc5c4)c[nH]c3n2)c(OC)c1 was less than 31.6 nM.
`O=C(c1cc(Cc2n[nH]c(=O)c3ccccc23)ccc1F)N1CCN(C(=O)C2CC2)CC1` + CN1CCN(c2cc(C(=O)Nc3cc4cc(-c5cnn(C)c5)ccc4cn3)ccn2)CC1: the IC50 is less than 31.6 nM.

The assay is the same for the next values; noted with them: curve of first compound; second compound 3.16 µM.
Regarding `O=c1[nH]cc(F)c(=O)[nH]1` + CN1CCN(c2cc(C(=O)Nc3cc4cc(-c5cnn(C)c5)ccc4cn3)ccn2)CC1, the IC50 is less than 31.6 nM.
Still for that read-out and setting: the value for `Nc1ccccc1NC(=O)c1ccc(CNC(=O)OCc2cccnc2)cc1` + CN1CCN(c2cc(C(=O)Nc3cc4cc(-c5cnn(C)c5)ccc4cn3)ccn2)CC1 was less than 31.6 nM; that for `Nc1ccn(C2OC(CO)C(O)C2(F)F)c(=O)n1` (stereo not drawn) + CNC(=O)c1ccc(Nc2nc(OC3CCCC3)c3c(-c4ccc5nc(C)oc5c4)c[nH]c3n2)c(OC)c1 was less than 31.6 nM; that for `O=C(c1cc(Cc2n[nH]c(=O)c3ccccc23)ccc1F)N1CCN(C(=O)C2CC2)CC1` + CN1CCN(c2cc(C(=O)Nc3cc4cc(-c5cnn(C)c5)ccc4cn3)ccn2)CC1 was less than 31.6 nM.

Staying with this assay, now noted: curve of first compound; second compound 10 µM.
`O=c1[nH]cc(F)c(=O)[nH]1` + CN1CCN(c2cc(C(=O)Nc3cc4cc(-c5cnn(C)c5)ccc4cn3)ccn2)CC1: the half-maximal inhibitory concentration (IC50) was less than 31.6 nM.
On the same count and under the same terms, as for `Nc1ccccc1NC(=O)c1ccc(CNC(=O)OCc2cccnc2)cc1` + CN1CCN(c2cc(C(=O)Nc3cc4cc(-c5cnn(C)c5)ccc4cn3)ccn2)CC1, the figure is less than 31.6 nM; as for `Nc1ccn(C2OC(CO)C(O)C2(F)F)c(=O)n1` (stereo not drawn) + CNC(=O)c1ccc(Nc2nc(OC3CCCC3)c3c(-c4ccc5nc(C)oc5c4)c[nH]c3n2)c(OC)c1, less than 31.6 nM.
On the same count and under the same terms, as for `O=C(c1cc(Cc2n[nH]c(=O)c3ccccc23)ccc1F)N1CCN(C(=O)C2CC2)CC1` + CN1CCN(c2cc(C(=O)Nc3cc4cc(-c5cnn(C)c5)ccc4cn3)ccn2)CC1, the figure is less than 31.6 nM.

The assay is the same for the next values; noted with them: second compound 0.0316 µM; first compound 0.0316 µM; stronger effect = lower value.
As for `O=c1[nH]cc(F)c(=O)[nH]1` + CN1CCN(c2cc(C(=O)Nc3cc4cc(-c5cnn(C)c5)ccc4cn3)ccn2)CC1, the viability, T/C is 84.2%.
Still for that read-out and setting: as for `Nc1ccccc1NC(=O)c1ccc(CNC(=O)OCc2cccnc2)cc1` + CN1CCN(c2cc(C(=O)Nc3cc4cc(-c5cnn(C)c5)ccc4cn3)ccn2)CC1, the figure is 93.5%; as for `Nc1ccn(C2OC(CO)C(O)C2(F)F)c(=O)n1` (stereo not drawn) + CNC(=O)c1ccc(Nc2nc(OC3CCCC3)c3c(-c4ccc5nc(C)oc5c4)c[nH]c3n2)c(OC)c1, 65.9%.
On to `O=C(c1cc(Cc2n[nH]c(=O)c3ccccc23)ccc1F)N1CCN(C(=O)C2CC2)CC1` + CN1CCN(c2cc(C(=O)Nc3cc4cc(-c5cnn(C)c5)ccc4cn3)ccn2)CC1, for which the viability, T/C was 91.9%.

The same assay, now with this note: second compound 0.0316 µM; first compound 0.1 µM; stronger effect = lower value.
For `O=c1[nH]cc(F)c(=O)[nH]1` + CN1CCN(c2cc(C(=O)Nc3cc4cc(-c5cnn(C)c5)ccc4cn3)ccn2)CC1, the viability, T/C is 97.8%.
Same read-out and setting: the value for `Nc1ccccc1NC(=O)c1ccc(CNC(=O)OCc2cccnc2)cc1` + CN1CCN(c2cc(C(=O)Nc3cc4cc(-c5cnn(C)c5)ccc4cn3)ccn2)CC1 was 103%; that for `Nc1ccn(C2OC(CO)C(O)C2(F)F)c(=O)n1` (stereo not drawn) + CNC(=O)c1ccc(Nc2nc(OC3CCCC3)c3c(-c4ccc5nc(C)oc5c4)c[nH]c3n2)c(OC)c1 was 51.8%.
Same read-out and setting: the value for `O=C(c1cc(Cc2n[nH]c(=O)c3ccccc23)ccc1F)N1CCN(C(=O)C2CC2)CC1` + CN1CCN(c2cc(C(=O)Nc3cc4cc(-c5cnn(C)c5)ccc4cn3)ccn2)CC1 was 89.5%.

The assay is the same for the next values; noted with them: second compound 0.0316 µM; first compound 0.316 µM; stronger effect = lower value.
Turning to `O=c1[nH]cc(F)c(=O)[nH]1` + CN1CCN(c2cc(C(=O)Nc3cc4cc(-c5cnn(C)c5)ccc4cn3)ccn2)CC1, the viability, T/C is 93.7%.
Same read-out and setting: the value for `Nc1ccccc1NC(=O)c1ccc(CNC(=O)OCc2cccnc2)cc1` + CN1CCN(c2cc(C(=O)Nc3cc4cc(-c5cnn(C)c5)ccc4cn3)ccn2)CC1 was 98.4%; that for `Nc1ccn(C2OC(CO)C(O)C2(F)F)c(=O)n1` (stereo not drawn) + CNC(=O)c1ccc(Nc2nc(OC3CCCC3)c3c(-c4ccc5nc(C)oc5c4)c[nH]c3n2)c(OC)c1 was 50.4%; that for `O=C(c1cc(Cc2n[nH]c(=O)c3ccccc23)ccc1F)N1CCN(C(=O)C2CC2)CC1` + CN1CCN(c2cc(C(=O)Nc3cc4cc(-c5cnn(C)c5)ccc4cn3)ccn2)CC1 was 91.2%.
